# Data: ChEMBL document CHEMBL1132905, “Synthesis of glycosylated polyethylenimine with reduced toxicity and high transfecting efficiency” (Bioorg Med Chem Lett, 2000)
# Assay: Lethal dose against HeLa cells, from a human cervix epitheloid carcinoma
# Type: toxicity, cell-based
# Details: read-out: LD50 (the source's name)
smiles,measurement,value
CCN(CCNC)CCNC[C@H](O)[C@@H](O)[C@H](O[C@@H]1O[C@H](CO)C(O)[C@H](O)[C@H]1O)[C@H](O)CO (stereo partly specified) [GLYCOSYLATED PEI],CC50,> 300 µM
